Values of other authors, collected in patent US20040087644A1, “Pharmaceutical composition in capsules that comprises a non-steroidal antiinflamatory and an optiate analgesic for handling pain” (Leopoldo Espinosa Abdala, priority 2002, published 2004).

Key:
pain = settings: clinical studies, compared with opiates
[1] = in vivo

In the case of O=C(c1ccccc1)c1ccc2n1CCC2C(=O)O (centres unmarked) [Ketorolac], the analgesic efficiency (pain) is given as “comparable with opiates” and the “dose excreted through the urine without changes” value [1] is given as “About 90%”.
